# From US20140199265A1, “NUTRITIONAL COMPOSITIONS CONTAINING A NEUROLOGIC COMPONENT AND USES THEREOF” (MEAD JOHNSON NUTRITION COMPANY, priority 2013, published 2014)
# What was measured:
# [1] = tested on: human adipose-derived stem cells (hADSCs); test: neurogenesis / neuronal differentiation of hADSCs judged by neuronal morphology under phase contrast microscopy; assay type: cell-based
# Procedure: hADSCs were purchased from Invitrogen, also known as Life Technologies, of Carlsbad, Calif., U.S.A., and were cultured as near confluent monolayers in 100 mm culture plates within a maintenance media consisting of Complete MesenPro RS medium with growth supplement and L-glutamine obtained from Invitrogen®. The process of culturing, passage, and seeding the hADSCs is described below.
# The subculture of hADSCs was performed when cell culture reached confluence. To passage hADSCs, the following procedure is used: i) aspirate the Complete MesenPRO RS medium from the cells; ii) rinse the surface area of the cell layer with Dulbecco's phosphate buffered saline (DBPS) buffer by adding the DPBS to the side of the vessel opposite the attached cell layer and rocking the vessel back and forth several times; iii) remove the DPBS by aspiration and discard; iv) detach the cells by adding a sufficient volume of pre-warmed trypsin-EDTA solution without phenol red to cover the cell layer; v) incubate at 37° C. for approximately 7 minutes; vi) observe the cells under a microscope to determine if additional incubation is needed; vii) add 3 mL of the maintenance media to the plate, mix the cell suspension, add the suspension to a 15 mL centrifuge tube and centrifuge at 210 g for 5 minutes; viii) determine the total number of cells and percent viability using a hemacytometer; ix) add Complete MesenPRO RS medium to each vessel so that the final culture volume is 0.2 mL-0.5 mL per cm^2; x) seed the cells by adding the appropriate volume of cells to each vessel and incubate at 37° C., 5% CO2 and 90% humidity; and xi) three or four days after seeding, completely remove the medium and replace with an equal volume of Complete MesenPRO RS medium.
# Before seeding the passaged hADSCs on fresh culture plates, the surfaces of the culture ware are washed with sterile DPBS solution three times, followed by multiple rinses with sterile water. The first layer of coating is poly-L-ornithine. The coating is prepared by adding about 15 to about 20 μg/mL of poly-L-ornithine and incubating at 37° C. for one hour. The plate is washed three times with DPBS, 15 minutes per wash. The second layer of coating is bovine plasma fibronectin. The fibronectin is diluted in DPBS from stock to 1:1000 and 500 μL is added to each well. The plate is left at room temperature for one hour. One final wash with 500 μL per well of DPBS is performed and the plate is used immediately.
# The cells were then subjected to removal and reseeded at a density of 2×10^4 cells/ml (1×10^4 cells/well) onto 24-well culture plates that contained a poly-L-ornithine and bovine plasma fibronectin coating.
# Three days after seeding and priming; the culture medium was changed into neuronal differentiation medium. The culture plates were removed from the incubator and all procedures were conducted in a laminar flow hood. The culture medium was completely removed from each well. The hADSCs were then washed with sterile DPBS solution in an amount of about 1 ml per well, to remove excess culture medium. The DPBS solution was removed and replaced with neuronal differentiation medium. The formulation of the neuronal differentiation medium is such that neurogenesis would be attributed to the nutrient and not to the medium. The neuronal differentiation medium used was Neurobasal™ Medium, available from Invitrogen®, which comprises the following ingredients listed below in Table 1.
# PE was added to individual wells at various concentrations in the serum-free medium. Pre-warmed serum-free medium contains Neural Basal medium with L-glutamine, 20 ng/mL of bFGF, 20 ng/mL of EGF and N2 supplement.
# […] PE in varying concentrations was tested individually and compared to the positive control, DHA, and the negative control (no treatment) under phase contrast microscopy at 24 hours, 48 hours and 96 hours. The experiments were repeated in triplicate. […]
# [2] = tested on: human neuronal stem cells (hNSCs); test: neurogenesis of GFP-expressing hNSCs judged by morphological changes under inverted fluorescent microscopy; assay type: cell-based
# Procedure: Briefly, hNSCs were purchased from Millipore, Bellerica, Mass., U.S.A., with genetic modification to constitutively express green fluorescent protein (“GFP”). The hNSCs were cultured on laminin coated plates as recommended by the manufacturer. Both laminin and DEME/F12 were obtained from Millipore. Laminin was diluted with DMEM/F12 to 20 μg/mL. 10 ml of diluted laminin solution was added to 10 cm tissue culture dish. Then the culture dish was incubated in a 37° C., 5% CO2 incubator overnight. Just before use, the laminin solution was aspirated and rinsed once with sterile DPBS solution. hNSCs were cultured in the ReNcell NSC maintenance medium (Millipore) supplied with 20 ng/mL bFGF and 20 ng/mL EGF in a 37° C., 5% CO2 incubator. Medium was exchanged with fresh medium containing bFGF and EGF every other day thereafter.
# After hNSCs reach 80% confluence, hNSCs were ready for the differentiation experiment. Before seeding, a 96-well plate was freshly coated with 20 μg/mL laminin solution followed by a brief DPBS rinse as described above. Culture medium was removed carefully and hNSCs were dissociated within 3 ml Accutase (Millipore) in a 37° C., 5% CO2 incubator for 3 minutes. Then 5 ml of ReNcell NSC maintenance medium (Millipore) supplied with 20 ng/mL bFGF and 20 ng/mL EGF were added. The cell suspension was then transferred a sterile 15 ml conical tube and the cells were pelleted by the centrifugation at 300×g for 5 minutes. Supernatant was removed. 2 ml medium was then applied to the tube and hNSCs was resuspended thoroughly. The hNSCs were seeded on a 96-well plate at a density of 1×10^4 cell/ml (1000 cells/well, 100 μl/well).
# After attaching to the culture surface, the culture medium was switched to serum-free differentiation medium in the presence of CDP-choline, or DHA, or no treatment. The serum-free differentiation medium was prepared freshly before the switching including 40 ml DMEM/F12 (Millipore), 400 μL-Glutamine at a concentration of 200 mM (Life Technologies, Carlsbad, Calif.), 400 μl B27 solution (Life Technologies, Carlsbad, Calif.), and 40 μl Heperin (Sigma-Aldrich, St. Louis, […].) solution at a concentration of 10 mg/mL.
# The entire 96-well plate was placed under the Leica DMI4000B fluorescent microscopy, and images were taken with GFP filter under a microscope with UV light source.
# [3] = CDP-choline of 404 (so in the source), after 72 hours
compound,measurement,setting,value
sphingomyelin,neural differentiation,[1]; 40 μM,enhanced neural differentiation of hADSCs
same,extensions compared to negative control,[1]; even at low concentrations (10-40 μM tested),longer than negative control and much more numerous
"CCCCCCCCCCCCC/C=C/[C@@H](O)[C@H](CO)NC(=O)C(O)CCCCCCCCCC (stereo partly drawn) [N—(R,S)-alpha-Hydroxydodecanoyl-D-erythrosphingosine]",early neurogenesis,"[1]; 40 μM, 24 hours after treating, FIG. 5B","Early neurogenesis was also, observed"
same,effects to promote neurogenesis compared with DHA,"[1]; tested at 20 and 40 μM vs DHA 10 μM, 24 hours",moderate effects to promote neurogenesis
same,neuronal changes in terms of morphology,"[1]; tested at 20 and 40 μM, 24 hours",obvious neuronal changes in terms of morphology
phosphatidylethanolamine [PE],effect to enhance neurogenesis (neuronal morphology),"[1]; 20 μM, among 10, 20 and 40 μM tested, FIGS. 2C, 2D",demonstrated the strongest effect to enhance neurogenesis
lactosylceramide,neurogenesis action,"[1]; 10 μM, FIG. 5D",exhibit neurogenesis action
"C[N+](C)(C)CCOP(=O)(O)OP(=O)([O-])OC[C@H]1O[C@@H](n2ccc(N)nc2=O)[C@H](O)[C@@H]1O [CDP-choline, cytidine diphosphate-choline]","effect to enhance neurogenesis (neurite outgrowth, morphological changes)","[1]; 5 μM, FIG. 4C",demonstrated an effect to enhance neurogenesis
same,length of neurite outgrowth,[2]; [3],comparable to DHA at 20 μM
same,neurogenesis compared to no treatment,[2]; [3],dramatically promoted neurogenesis
O=c1ccn([C@@H]2O[C@H](CO)[C@@H](O)[C@H]2O)c(=O)[nH]1 [uridine],early neurogenesis,"[1]; 20 μM, three hours after switching to neural differentiation medium, FIG. 6B",Early neurogenesis was observed
same,duration of neuronal morphological changes,[1]; 0.5 mM,continued up to the 48-hour time course of the culture
same,effect to enhance early neurogenesis,[1]; 0.5 mM,demonstrated the strongest effect to enhance early neurogenesis
same,length of neurite outgrowth,[2]; 20 μM,good effects of neurogenesis
same,neurogenesis,"[2]; 20 μM, FIG. 6C",dramatically promoted neurogenesis
CCCCCCCCCCCCC/C=C/[C@@H](O)[C@@H](CO)NC(=O)CCCCCCC [N-octanoyl-D-threo-sphingosine],neurogenesis,"[2]; 10 μM, FIG. 5E",dramatically promoted neurogenesis
